Consider 14 compounds from BindingDB's records for doi:10.1016/s0960-894x(00)00161-x (University of Tokyo, 2000).

Each structure is given as a SMILES string.

This assay can be described thus: Inhibition of Beta-glucosidase activity.
One may read the IC50 as the concentration that gives 50% inhibition. Low readings indicate greater potency in that assay, high ones weaker potency in that assay. `O=C1c2cccc([N+](=O)[O-])c2C(=O)N1c1ccccc1` showed an IC50 above 500 µM.

In turn, `O=C1c2ccccc2C(=O)N1CCCc1ccccc1` [2-(3-Phenyl-propyl)-isoindole-1,3-dione] registered an IC50 above 500 µM.

`O=C1c2c(Cl)c(Cl)c(Cl)c(Cl)c2C(=O)N1Cc1ccccc1` [2-Benzyl-4,5,6,7-tetrachloro-isoindole-1,3-dione] registered an IC50 above 500 µM.

The compound `O=C1c2ccccc2C(=O)N1CCc1ccccc1` [2-Phenethyl-isoindole-1,3-dione] gave an IC50 above 500 µM.

`O=C1c2ccccc2C(=O)N1c1ccccc1` [2-Phenyl-isoindole-1,3-dione] displayed an IC50 above 500 µM.

Take `O=C1c2c(Cl)c(Cl)c(Cl)c(Cl)c2C(=O)N1CCCc1ccccc1` [4,5,6,7-Tetrachloro-2-(3-phenyl-propyl)-isoindole-1,3-dione]: the IC50 is above 500 µM.

In turn, `O=C1c2c(Cl)c(Cl)c(Cl)c(Cl)c2C(=O)N1CCCCCc1ccccc1` [4,5,6,7-Tetrachloro-2-(5-phenyl-pentyl)-isoindole-1,3-dione] returned an IC50 above 500 µM.

`O=C1c2c(Cl)c(Cl)c(Cl)c(Cl)c2C(=O)N1CCCCCCc1ccccc1` [4,5,6,7-Tetrachloro-2-(6-phenyl-hexyl)-isoindole-1,3-dione] yielded an IC50 above 500 µM.

`O=C1c2c(Cl)c(Cl)c(Cl)c(Cl)c2C(=O)N1CCc1ccccc1` [4,5,6,7-Tetrachloro-2-phenethyl-isoindole-1,3-dione]: the IC50 was above 500 µM.

As for `O=C1c2c(Cl)c(Cl)c(Cl)c(Cl)c2C(=O)N1CCCCc1ccccc1` [4,5,6,7-tetrachloro-2-(4-phenylbutyl)isoindoline-1,3-dione], the IC50 is above 500 µM.

As to `O=C1c2cccc(O)c2C(=O)N1c1ccccc1` [4-Hydroxy-2-phenyl-isoindole-1,3-dione], the IC50 was above 500 µM.

As to `Nc1ccc2c(c1)C(=O)N(c1ccccc1)C2=O` [5-Amino-2-phenyl-isoindole-1,3-dione], the IC50 was above 500 µM.

`O=C1c2ccc([N+](=O)[O-])cc2C(=O)N1c1ccccc1` [5-Nitro-2-phenyl-isoindole-1,3-dione] showed an IC50 above 500 µM.

Take `O=C1c2ccc(O)cc2C(=O)N1c1ccccc1` [5-hydroxy-2-phenylisoindoline-1,3-dione]: the IC50 was above 500 µM.
